# Earlier results in US6727058B2, “Intergrase assay” (priority 1998, dated 2004).
# Target: lacR (Escherichia coli, UniProt P03023)
# Conditions: association constant; Barkley & Bourgeios 1980
# lacR, sequence (P03023 whole entry): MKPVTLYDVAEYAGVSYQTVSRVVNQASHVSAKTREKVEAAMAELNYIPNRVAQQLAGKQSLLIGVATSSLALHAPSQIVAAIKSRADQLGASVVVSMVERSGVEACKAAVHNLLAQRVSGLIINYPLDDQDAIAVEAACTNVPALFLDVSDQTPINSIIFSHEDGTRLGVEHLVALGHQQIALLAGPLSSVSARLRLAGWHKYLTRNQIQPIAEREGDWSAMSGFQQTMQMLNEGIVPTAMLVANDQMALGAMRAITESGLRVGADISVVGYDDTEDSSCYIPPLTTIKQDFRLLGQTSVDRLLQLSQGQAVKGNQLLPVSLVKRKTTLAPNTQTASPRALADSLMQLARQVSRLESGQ
smiles,measurement,value
CC(C)S[C@@H]1O[C@H](CO)[C@H](O)[C@H](O)[C@H]1O [IPTG],ka of lacR complexing IPTG,≈ 10^6 M^−1
